The results in this text go back to paper PMC9182012, “Aza-Oxa-Triazole Based Macrocycles with Tunable Properties: Design, Synthesis, and Bioactivity” (Molecules, 2022).

For data set [1], the target named is bovine serum albumin (BSA) (Bos taurus, UniProt P02769). The experiment in a line: Protein interaction by fluorescence quenching, Stern–Volmer binding constant. As to conditions: for Extent of binding with BSA, in words: fluorescence quenching, 10 µM BSA, pH 7.4, 25 °C; for Binding Constant, BSA: slope of Stern–Volmer plot (Io/I vs macrocycle concentration), 10 µM BSA in phosphate buffer pH 7.4, 2–100 µM macrocycle from 2 mM DMSO stock, 25 °C, excitation 280 nm, 3 min equilibration. Here is the method: (§1) All the fluorescence spectra were recorded on a Perkin Elmer (Waltham, MA, USA) FL 6500 at 25 °C. The excitation wavelength of 280 nm and a slit width of 5 nm were used for excitation and emission. Next, 6.6 mg of BSA/HSA was dissolved in 10 mL of pH 7.4 phosphate buffer to make 10 μM BSA/HSA. The stock solutions of macrocycles were of 2 mM concentration dissolved in DMSO. The titrations were carried out in varied concentrations of macrocycles from 2 μM to 100 μM. Three minutes were given as the equilibration time after the addition of the solution. The Stern–Volmer plot was used to calculate the binding constant (slope) by plotting Io/I vs. the macrocycle concentration.
(§2) Figure 4 Fluorescence quenching of protein by MC7 at excitation wavelength 280 nm, (a) BSA and (b) HSA. To 10 µM protein solution in phosphate buffer (pH 7.4), 2–100 µM macrocycle solution was added at 25 °C. Inset: Stern–Volmer Plot; Io and I are the fluorescence intensity at 0 µM and the given concentration of the macrocycle, and the slope is considered as the binding constant. […]
(§3) 8.2 Fluorescence spectroscopy for protein interaction studies
(§4) 8.2.1 Experimental Procedure
(§5) 10 μM BSA was prepared by dissolving 6.6 mg of BSA in 10 mL of phosphate buffer of pH
(§6) 7.4. The macrocycles were dissolved in DMSO to make the stock solution of 2 mM concentration. 2 mL of the BSA control solution was taken in the fluorescence cuvette to take the emission at zero concentration of the compound. The titration was carried out by varying the concentration of macrocycle from 2 μM to 100 μM. An equilibration time of 3 minutes is given for each measurement after the addition of the solution. Binding constant were estimated from the Stern-Volmer plot by plotting I o/I vs concentration of the macrocycle. The slope of the graph was attributed as the binding constant.

Data set [2] deals with human serum albumin (HSA) (Homo sapiens, UniProt P02768). The description is as above. As to conditions: for Binding Constant, HSA: slope of Stern–Volmer plot (Io/I vs macrocycle concentration), 10 µM HSA in phosphate buffer pH 7.4, 2–100 µM macrocycle from 2 mM DMSO stock, 25 °C, excitation 280 nm, 3 min equilibration; for Extent of interaction with HSA, in words: fluorescence quenching, 10 µM HSA, pH 7.4, 25 °C. Here is the method:
as §1, §2, §3, §4, §5, §6

Data set [3] in a line: RP-HPLC retention time as measure of hydrophilicity/hydrophobicity. Type of data set: physicochemical. The settings on record: chromatographic, C18; acetonitrile and water with 0.1% formic acid, 5–95 % acetonitrile over 15 min; higher retention time = more hydrophobic. From the text: The bulk properties of the macrocycles depend on the functional groups on the side chain and backbone and the ring size. The platform for the tunability in the macrocyclic scaffold aided in the synthesis of molecules with a wide range of properties. The hydrophilicity/hydrophobicity of the macrocycles is an important property, primarily for biological applications. The tunable property of the synthesized macrocycles is attributed to the different retention times in the reverse-phase high-performance liquid chromatogram (RP-HPLC). Hydrophilic compounds elute first through the column, thus lowering the retention time, whereas a higher retention time corresponds to the comparatively hydrophobic compounds. From Figure 3a, it could be inferred that the macrocycles MC1–5 and MC7 are hydrophilic, whereas MC8 and MC6 are hydrophobic, as depicted by the higher retention times. The higher hydrophobicity is due to the aromatic rings, two benzyl groups in MC6 and a naphthyl group in MC8. Another property achieved by one of the macrocycles is the addition of fluorophoric group as the side chain. The resultant fluorescence could be exploited for various photophysical applications, including the development of fluorimetric sensors (Figure 3b).
A Shimadzu (Kyoto, Japan) LC-MS-8045 with a Sprite TARGA C18 column (40 × 2.1 mm, 5 µm) was used for the LC-MS analysis. The spectra were monitored at 254 nm and 210 nm with a positive mode for mass detection. Water and acetonitrile with 0.1% formic acid were used as eluting solvents A and B. […] HRMS was carried out in a Bruker, Maxis Impact and Waters (Billerica, MA, USA) ACQUITY H-CLASS + UPLC/XevoG2 XS QTOF instrument. A 500 MHz Bruker AV III was used to record the ^1H NMR spectrum. The data were analyzed by MestReNova (version 8.1.1). ^1H NMR shifts are reported in units of ppm relative to tetramethyl silane. […]
Figure 3 Properties of the macrocycles. […] Fluorescence spectrum of 10 μM MC8 in methanol upon excitation with a wavelength of 278 nm.

Chain of human serum albumin (HSA) (P02768 25-609): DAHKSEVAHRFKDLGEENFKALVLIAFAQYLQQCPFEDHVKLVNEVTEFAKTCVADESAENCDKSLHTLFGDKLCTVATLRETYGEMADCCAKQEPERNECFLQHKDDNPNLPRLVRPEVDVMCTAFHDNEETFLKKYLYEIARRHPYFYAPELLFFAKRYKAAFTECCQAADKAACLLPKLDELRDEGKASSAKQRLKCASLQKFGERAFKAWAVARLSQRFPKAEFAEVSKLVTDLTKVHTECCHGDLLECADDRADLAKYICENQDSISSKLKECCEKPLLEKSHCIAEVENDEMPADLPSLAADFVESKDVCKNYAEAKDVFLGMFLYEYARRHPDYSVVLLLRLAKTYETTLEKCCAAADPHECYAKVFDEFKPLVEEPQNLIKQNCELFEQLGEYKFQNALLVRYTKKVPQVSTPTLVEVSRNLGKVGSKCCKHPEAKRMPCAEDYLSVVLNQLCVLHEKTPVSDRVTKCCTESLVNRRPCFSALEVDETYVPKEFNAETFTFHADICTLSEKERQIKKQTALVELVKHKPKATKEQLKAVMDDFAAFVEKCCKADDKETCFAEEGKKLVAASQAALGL
Chain of bovine serum albumin (BSA) (P02769 25-607): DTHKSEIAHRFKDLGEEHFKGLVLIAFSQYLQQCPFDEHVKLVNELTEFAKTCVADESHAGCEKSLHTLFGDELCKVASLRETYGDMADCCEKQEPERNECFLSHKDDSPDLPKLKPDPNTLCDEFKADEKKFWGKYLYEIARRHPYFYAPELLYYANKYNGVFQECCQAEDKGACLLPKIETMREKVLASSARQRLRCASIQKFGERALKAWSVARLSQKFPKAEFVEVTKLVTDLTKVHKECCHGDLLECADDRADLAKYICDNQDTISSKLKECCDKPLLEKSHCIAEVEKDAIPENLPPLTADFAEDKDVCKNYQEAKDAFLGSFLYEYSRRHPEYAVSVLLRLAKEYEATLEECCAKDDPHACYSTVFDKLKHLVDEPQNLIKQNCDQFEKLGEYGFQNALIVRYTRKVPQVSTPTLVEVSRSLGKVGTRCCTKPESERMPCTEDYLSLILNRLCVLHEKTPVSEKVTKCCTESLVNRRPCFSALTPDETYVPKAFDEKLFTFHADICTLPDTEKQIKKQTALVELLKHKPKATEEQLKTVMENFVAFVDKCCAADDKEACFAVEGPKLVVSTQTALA

As to `CN1CCN(C)Cc2cn(nn2)CCNCCn2cc(nn2)C1` [MC5], in data set [1], the “Extent of binding with BSA, in words” value is recorded as “negligible binding” and the “Binding Constant, BSA” value was 1400 M⁻¹. Moreover, the “Binding Constant, HSA” value in data set [2] was 3200 M⁻¹.
Regarding `CCN(CC)C(=O)CN1CCOCc2cn(nn2)CCNCCn2cc(nn2)C1` [MC4], in data set [1], the “Extent of binding with BSA, in words” value is recorded as “moderate binding” and the “Binding Constant, BSA” value was determined as 9100 M⁻¹. Further, in data set [2], the “Extent of interaction with HSA, in words” value was “greater extent of interaction” and the “Binding Constant, HSA” value was 8400 M⁻¹.
Consider `c1ccc(CN2CCN(Cc3ccccc3)Cc3cn(nn3)CCNCCn3cc(nn3)C2)cc1` [MC6], for which, in data set [1], the “Extent of binding with BSA, in words” value was “negligible binding” and the “Binding Constant, BSA” value was found to be 800 M⁻¹. For the same compound, in data set [2], the “Extent of interaction with HSA, in words” value was “lowest” and the “Binding Constant, HSA” value was 930 M⁻¹. In data set [3], the “Hydrophilicity/hydrophobicity inferred from RP-HPLC retention time” value (from here on “Hydrophilicity/hydrophobicity inferred”) is on record as “hydrophobic”.
Consider `c1c2nnn1CCNCCn1cc(nn1)COCCCCCCCCCCCCOC2` [MC7], for which, in data set [1], the “Extent of binding with BSA, in words” value is “highest binding” and the “Binding Constant, BSA” value was found to be 27100 M⁻¹. In data set [2], the “Extent of interaction with HSA, in words” value is “highest interaction and quenching”; the “Binding Constant, HSA” value is 15800 M⁻¹. Also, the “Hydrophilicity/hydrophobicity inferred” value in data set [3] is given as “hydrophilic”.
On to `c1c2nnn1CCNCCn1cc(nn1)CN(C1CCCCC1)CCOC2` [MC3], for which, in data set [1], the “Extent of binding with BSA, in words” value is listed as “moderate binding” and the “Binding Constant, BSA” value is 4200 M⁻¹. The “Binding Constant, HSA” value in data set [2] was 3500 M⁻¹.
For `CC(C)N1CCOCc2cn(nn2)CCNCCn2cc(nn2)C1` [MC2], in that order: “moderate binding”, 4000 M⁻¹ and 4400 M⁻¹.
In the case of `CCCN1CCOCc2cn(nn2)CCNCCn2cc(nn2)C1` [MC1], in data set [1], the “Extent of binding with BSA, in words” value was “moderate binding” and the “Binding Constant, BSA” value stood at 4600 M⁻¹. In addition, in data set [2], the “Binding Constant, HSA” value is 4200 M⁻¹.
Turning to `c1ccc2cc(CN3CCOCc4cn(nn4)CCNCCn4cc(nn4)COCC3)ccc2c1` [MC8], the “Hydrophilicity/hydrophobicity inferred” value in data set [3] is “hydrophobic”.
